The values that follow come from patent US20260226042A1, “C[…] H[…] PROCESSES FOR PREPARING THE SAME” (OLON S.P.A., priority 2023, published 2026).

Counter-ions that a name gives are not always drawn.

This data set in a line: Dynamic Vapor Sorption (DVS) Isotherm of Aceclidine HCl (hydration of anhydrous to hemihydrate form). It is filed as physicochemical. The protocol: The conversion from anhydrous to hemihydrate form of Aceclidine HCl (4 mg) was analyzed by a Dynamic Vapor Sorption (DVS) Isotherm.

For the compound `CC(=O)OC1CN2CCC1CC2` (centres unmarked) [Anhydrous Aceclidine HCl, anhydrous Aceclidine HCl, reference compound], the “weight change at which the hemihydrate form formation is obtained” value (DVS isotherm, weight change % / relative humidity %, 4 mg sample, FIG. 4) is “about 4%”.
For `CC(=O)OC1CN2CCC1CC2` (centres unmarked) [Aceclidine HCl hemihydrate], the “weight when environmental humidity content decreased” value (DVS, FIG. 4) is recorded as “remained stable”. Also, where the note is “DVS, with decreasing relative humidity, FIG. 4”, the “reversibility of conversion anhydrous to hemihydrate form” value is reported as “irreversible”. The hygroscopicity result (compared to the corresponding anhydrous form) is given as “low hygroscopicity”. For the same compound, the “conversion into other forms without controlled conditions” value (handling without humidity-controlled conditions (e.g. glove box)) is listed as “not subjected to any conversion”.
